In PubChem BioAssay (NCI) one finds TGI data, which are given here for 18 compounds.

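In this assay, cells in 96-well plates receive the compound at five concentrations for 48 hours. Endpoints are linearly interpolated between the surrounding concentrations. TGI is the concentration that stops growth completely.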

The subject of the first assay is U251 CNS. The assay is described as follows: DTP human tumour cell line panel, 48 h.
Consider `O=C1C/C(=C/c2ccc(/C=C3/CC(=O)N(c4cccc(Br)c4)C3=O)cc2)C(=O)N1c1cccc(Br)c1`, for which the TGI was above 100 µM.
Same read-out and setting: under `CCOC(C[C@H](O)[C@H]1COC(=S)S1)OCC` stands above 100 µM.
On the same count and under the same terms, under `CCCCCCn1c(SCC)c2ccccc2c1-c1nc(F)nc(F)n1` stands above 100 µM; under `CN(C(=O)C12C3C4C1C1C2C3C41I)C(C)(C)C` (configuration not stated), above 100 µM; under `Cn1c(O)c(C(=O)Nc2cccs2)c(=O)[nH]c1=S`, 48.3 µM.
Compound `CC(=O)/C(=C\c1ccco1)C(=O)Nc1ccccc1` returned a TGI above 100 µM.
Compound `NCC1(N2CCOCC2)C2CCCC21CO` (configuration not stated) displayed a TGI above 100 µM.
The same measure, in the same setting: to `CC#COP(=O)(OCC)OCC` belongs above 100 µM.
Same read-out and setting: under `C=CCONC(=O)c1ccc(Cl)cc1` stands above 100 µM.
Still for that read-out and setting: to `O=C(CC1Sc2ccccc2NC1=O)Nc1cc(Cl)ccc1Cl` (configuration not stated) belongs above 100 µM; to `COc1cc(/C=C/C(=O)c2sc(-n3nc(-c4ccccc4)cc3-c3ccccc3)nc2C)ccc1O`, above 100 µM.
For `CC(C)=CCCC1(C)C=Cc2c(c(C)cc3c2[nH]c2cc(O)ccc23)O1` (configuration not stated), the TGI is above 25 µM.
On to `COc1cc(NC(C)=O)c2[nH]c3c(C)cc(NC(C)=O)c(C)c3c2c1`, for which the TGI is above 100 µM.
The same measure, in the same setting: under `COc1cc(/C=C\c2ccccn2)cc(OC)c1OC` stands above 100 µM.
With `O=P(O)(OCC(O)O)OCC(O)O`, the TGI is above 100 µM.
Still for that read-out and setting: under `CCOC(=O)CSc1ccnc(=O)[nH]1` stands above 100 µM; under `c1ccc(Nc2nnc(CSc3nc(-c4ccccc4)c(-c4ccccc4)[nH]3)s2)cc1`, 28.1 µM.

A further assay has as its system ACHN renal. Kind of assay: DTP human tumour cell line panel, 48 h.
`O=C1C/C(=C/c2ccc(/C=C3/CC(=O)N(c4cccc(Br)c4)C3=O)cc2)C(=O)N1c1cccc(Br)c1` yielded a TGI above 100 µM.
In turn, `CCOC(C[C@H](O)[C@H]1COC(=S)S1)OCC` came in with a TGI above 100 µM.
On the same count and under the same terms, under `CCCCCCn1c(SCC)c2ccccc2c1-c1nc(F)nc(F)n1` stands above 100 µM; under `CN(C(=O)C12C3C4C1C1C2C3C41I)C(C)(C)C` (configuration not stated), above 100 µM; under `Cn1c(O)c(C(=O)Nc2cccs2)c(=O)[nH]c1=S`, 43.7 µM.
The same measure, in the same setting: under `CC(=O)/C(=C\c1ccco1)C(=O)Nc1ccccc1` stands above 100 µM; under `NCC1(N2CCOCC2)C2CCCC21CO` (configuration not stated), above 100 µM; under `CC#COP(=O)(OCC)OCC`, above 100 µM.
The same measure, in the same setting: to `C=CCONC(=O)c1ccc(Cl)cc1` belongs above 100 µM; to `O=C(CC1Sc2ccccc2NC1=O)Nc1cc(Cl)ccc1Cl` (configuration not stated), above 100 µM; to `COc1cc(/C=C/C(=O)c2sc(-n3nc(-c4ccccc4)cc3-c3ccccc3)nc2C)ccc1O`, above 100 µM.
Regarding `O=C(CCn1[nH]c(=O)c(Cl)c(Cl)c1=O)NOCCCc1ccccc1`, the TGI was above 100 µM.
Turning to `CC(C)=CCCC1(C)C=Cc2c(c(C)cc3c2[nH]c2cc(O)ccc23)O1` (configuration not stated), the TGI was above 25 µM.
For the compound `COc1cc(NC(C)=O)c2[nH]c3c(C)cc(NC(C)=O)c(C)c3c2c1`, the TGI is above 100 µM.
On the same count and under the same terms, under `COc1cc(/C=C\c2ccccn2)cc(OC)c1OC` stands above 100 µM; under `O=P(O)(OCC(O)O)OCC(O)O`, above 100 µM.
The same measure, in the same setting: under `CCOC(=O)CSc1ccnc(=O)[nH]1` stands above 100 µM; under `c1ccc(Nc2nnc(CSc3nc(-c4ccccc4)c(-c4ccccc4)[nH]3)s2)cc1`, above 100 µM.

In the next assay the test system is HL-60(TB) leukemia. The assay is described as follows: DTP human tumour cell line panel, 48 h.
With `O=C1C/C(=C/c2ccc(/C=C3/CC(=O)N(c4cccc(Br)c4)C3=O)cc2)C(=O)N1c1cccc(Br)c1`, the TGI was above 100 µM.
In the case of `CCOC(C[C@H](O)[C@H]1COC(=S)S1)OCC`, the TGI is above 100 µM.
Same read-out and setting: to `CCCCCCn1c(SCC)c2ccccc2c1-c1nc(F)nc(F)n1` belongs above 100 µM; to `CN(C(=O)C12C3C4C1C1C2C3C41I)C(C)(C)C` (configuration not stated), above 92.7 µM.
Same read-out and setting: under `Cn1c(O)c(C(=O)Nc2cccs2)c(=O)[nH]c1=S` stands above 100 µM.
On the same count and under the same terms, to `CC(=O)/C(=C\c1ccco1)C(=O)Nc1ccccc1` belongs above 100 µM; to `NCC1(N2CCOCC2)C2CCCC21CO` (configuration not stated), above 100 µM; to `CC#COP(=O)(OCC)OCC`, 60.6 µM.
Consider `C=CCONC(=O)c1ccc(Cl)cc1`, for which the TGI was above 100 µM.
Same read-out and setting: to `O=C(CC1Sc2ccccc2NC1=O)Nc1cc(Cl)ccc1Cl` (configuration not stated) belongs above 100 µM; to `COc1cc(/C=C/C(=O)c2sc(-n3nc(-c4ccccc4)cc3-c3ccccc3)nc2C)ccc1O`, above 100 µM.
The same measure, in the same setting: under `O=C(CCn1[nH]c(=O)c(Cl)c(Cl)c1=O)NOCCCc1ccccc1` stands above 100 µM; under `CC(C)=CCCC1(C)C=Cc2c(c(C)cc3c2[nH]c2cc(O)ccc23)O1` (configuration not stated), above 25 µM; under `COc1cc(NC(C)=O)c2[nH]c3c(C)cc(NC(C)=O)c(C)c3c2c1`, above 100 µM.
Still for that read-out and setting: under `COc1cc(/C=C\c2ccccn2)cc(OC)c1OC` stands above 100 µM; under `O=P(O)(OCC(O)O)OCC(O)O`, above 100 µM; under `CCOC(=O)CSc1ccnc(=O)[nH]1`, above 100 µM.
In the case of `c1ccc(Nc2nnc(CSc3nc(-c4ccccc4)c(-c4ccccc4)[nH]3)s2)cc1`, the TGI was 31.4 µM.

For a further assay, the system named is LOX IMVI melanoma. The assay is described as follows: DTP human tumour cell line panel, 48 h.
With `O=C1C/C(=C/c2ccc(/C=C3/CC(=O)N(c4cccc(Br)c4)C3=O)cc2)C(=O)N1c1cccc(Br)c1`, the TGI is above 100 µM.
The same measure, in the same setting: to `CCOC(C[C@H](O)[C@H]1COC(=S)S1)OCC` belongs above 100 µM; to `CCCCCCn1c(SCC)c2ccccc2c1-c1nc(F)nc(F)n1`, above 100 µM.
Still for that read-out and setting: under `CN(C(=O)C12C3C4C1C1C2C3C41I)C(C)(C)C` (configuration not stated) stands above 100 µM.
The same measure, in the same setting: under `Cn1c(O)c(C(=O)Nc2cccs2)c(=O)[nH]c1=S` stands 31 µM.
`CC(=O)/C(=C\c1ccco1)C(=O)Nc1ccccc1` came in with a TGI above 100 µM.
The same measure, in the same setting: under `CC#COP(=O)(OCC)OCC` stands above 100 µM.
On the same count and under the same terms, to `C=CCONC(=O)c1ccc(Cl)cc1` belongs above 100 µM.
Compound `O=C(CC1Sc2ccccc2NC1=O)Nc1cc(Cl)ccc1Cl` (configuration not stated) returned a TGI above 100 µM.
On the same count and under the same terms, under `COc1cc(/C=C/C(=O)c2sc(-n3nc(-c4ccccc4)cc3-c3ccccc3)nc2C)ccc1O` stands above 100 µM; under `O=C(CCn1[nH]c(=O)c(Cl)c(Cl)c1=O)NOCCCc1ccccc1`, above 100 µM; under `CC(C)=CCCC1(C)C=Cc2c(c(C)cc3c2[nH]c2cc(O)ccc23)O1` (configuration not stated), above 25 µM.
Same read-out and setting: under `COc1cc(/C=C\c2ccccn2)cc(OC)c1OC` stands above 100 µM; under `O=P(O)(OCC(O)O)OCC(O)O`, above 100 µM.

By TGI is commonly meant the concentration at which net growth stops. A low value points to greater sensitivity of the cells.
